Data: the METLIN SMRT retention time set (Domingo-Almenara et al. 2019)

Experiment: gradient 5% acetonitrile 3 min, to 50% in 2 min, to 85% in 15 min, held 3 min, 100 µL/min
Settings: column: Zorbax Extend-C18 2.1 x 50 mm; eluents: water / acetonitrile, 0.1% formic acid
How it was run: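 Each retention time is based on an adduct peak selected computationally and verified by manual inspection. Measurements used HPLC–quadrupole time-of-flight mass spectrometry in positive and negative ionization mode on mixtures of ~100 pure standards. Chromatography ran on a Zorbax Extend-C18 column (2.1 × 50 mm, 1.8 μm) at 100 μL/min with water and acetonitrile, each containing 0.1% formic acid, and dead and dwell volumes of 40 μL and 900 μL.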

| SMILES | RP-LC retention time |
| --- | --- |
| O=C1CCCc2cc(S(=O)(=O)N3CCC(C(=O)NCc4ccc5c(c4)OCO5)CC3)ccc2N1 | 706 s |
| Cn1cc(C(=O)Nc2ccc3c(c2)CCC3)c(S(=O)(=O)N2CCCCC2)n1 | 1090 s |
| CCCC(=O)NC1(c2nc(C(C)C)no2)CCCCC1 | 850 s |
| CCCNC(=O)C1CCCN(c2nc3ncn(CC(=O)NCc4cccs4)c(=O)c3s2)C1 (stereo not given) | 657 s |
| COCCOC1CCC12CCN(C(=O)c1cn[nH]c1)CC2 (stereo not given) | 617 s |
| Cc1cc(F)ccc1N1C(=O)CN(S(C)(=O)=O)CC1(C)C(=O)NCc1ccc(Cl)cc1 (stereo not given) | 856 s |
| Cc1nn(-c2ccc(Cl)cc2)c2sc(C(=O)O)cc12 | 1010 s |
| CC1CCC(NC(=O)C2CCCN(S(=O)(=O)c3c[nH]c(C(=O)N4CCCCCC4)c3)C2)CC1 (stereo not given) | 938 s |
| CN1c2cc(F)ccc2C(=O)NC12CCN(C(=O)NCc1ccc(F)cc1)CC2 | 754 s |
| Cc1cccc(NC(=O)N2CCC(n3cnc4cc(Cl)ccc4c3=O)CC2)c1 | 877 s |
| CCc1nc(-c2csc(S(=O)(=O)N3CCC(C(=O)Nc4ccc(Cl)cc4C)CC3)c2)no1 | 1180 s |
| Cc1ccc(CNC(=O)CN2C(=O)NC3(CCCCC3)C2=O)cc1 | 774 s |
| CCn1cc(C(=O)Nc2cccc(C)c2)c(S(=O)(=O)N2CCSCC2)n1 | 902 s |
| Cc1ccc(-n2cc3c(N4CCCC(C(=O)NCc5cc(F)cc(F)c5)C4)ncnc3n2)cc1 (stereo not given) | 740 s |
| Cn1cc2c3c(cccc31)CN(C(=O)c1cc(F)ccc1Cl)CC2 | 938 s |
| CC1CCCC(NC(=O)c2cc(=O)[nH]c3ccc(Br)cc23)C1C (stereo not given) | 869 s |
| O=C(CN1c2ccc(F)cc2-c2ccccc2S1(=O)=O)N1CCCCCC1 | 958 s |
| Cc1ccc(-c2noc(Cc3nnc(-c4ccc(C)c(F)c4)o3)n2)cc1C | 1210 s |
| COCC(C)(O)CNC(=O)c1cn(C)nc1OC (stereo not given) | 561 s |
| CCCCNC(=O)c1cccc2c1CCN2C(=O)C1CC1 | 764 s |
| Nc1cc(C2CCN(C(=O)c3cccc(Br)c3)CC2)no1 | 709 s |
| O=C(Nc1ccc2c(c1)OCO2)C1CCCN(S(=O)(=O)c2c[nH]c(C(=O)N3CCCC3)c2)C1 (stereo not given) | 747 s |
| Cc1ccccc1NC(=O)C1CCN(S(=O)(=O)c2ccc3c(c2)sc(=O)n3C(C)C)CC1 | 951 s |
| CN1CCN(c2nc3ccccc3nc2Cl)CC1 | 650 s |
| CC(C)c1nnc(-c2ccc(=O)n(CC(=O)N3CCC4(CC3)OCCO4)c2)o1 | 609 s |
| Cc1ccc(NC(=O)C2CCc3nc(N4CCOCC4)ncc3C2)c(F)c1 (stereo not given) | 731 s |

Next, values leading:

| RP-LC retention time | SMILES |
| --- | --- |
| 644 s | O=C(Cn1cc(-c2ccccc2)c2ncnc(N3CCOCC3)c21)NCC1CCCO1 (stereo not given) |
| 910 s | COc1ccc(/C=C/c2nn3c(CCc4ccccc4)nnc3s2)cc1 |
| 710 s | CN(C)c1cccc(C(=O)N2CCC3(C2)C(=O)N(C)c2ccccc23)c1 (stereo not given) |
| 927 s | O=C(O)c1cc(NS(=O)(=O)c2ccccc2)ccc1N1CCCC(CN2CCCC2)C1 (stereo not given) |
| 836 s | COc1ccc(-c2noc(-c3nnn4c3COC(c3ccc(F)cc3)C4)n2)c(OC)c1 (stereo not given) |
| 588 s | CCC(=O)Nc1cccc(-c2nnc3n2CCC3)c1 |
| 711 s | Cc1cccc([N+](=O)[O-])c1NC(=O)C1CCCN(c2ccc(-n3cccn3)nn2)C1 (stereo not given) |
| 804 s | O=C(c1cn2cc(Cl)ccc2n1)N1CCN(c2ccccc2)CC1 |
| 912 s | COc1ccc(-n2c(=O)n(C)c(=O)c3cc(C(=O)Nc4cc(C)ccc4F)cnc32)cc1 |
| 1130 s | Cc1oc2ccn(Cc3ccc(F)cc3)c(=O)c2c1C(=O)NCc1cc(F)ccc1F |
| 945 s | COc1ccc(S(=O)(=O)N2CCc3c(c(-c4nnc(-c5ccc(F)cc5)o4)nn3C)C2)cc1 |
| 1240 s | Cc1cccc(-c2nc(CN(c3ccccc3)S(=O)(=O)c3cccs3)c(C)o2)c1 |
| 746 s | COCc1nc2cccnc2n1C1CCN(C(=O)Nc2ccc(Br)cc2F)CC1 |
| 588 s | COc1ccc(S(=O)(=O)N2CCN(c3ccccn3)CC2)cc1OC |
| 862 s | CCc1noc(NC(C)=O)c1-c1ccc(OC)c(S(=O)(=O)Nc2cccc(C(F)(F)F)c2)c1 |
| 717 s | Cc1ccc(Nc2nc(C)cc(N3CCN(C(=O)Nc4cccc(C)c4)CC3)n2)cc1 |
| 1020 s | Cc1ccc(-n2nc(C)c3c(C)cc(OCC(=O)Nc4ccc5c(c4)OCO5)nc32)cc1 |
| 646 s | Cc1ccc2c(c1)C1CC(C)(O2)N(c2cccc(C(=O)NCc3ccccn3)c2)C(=O)N1 (stereo not given) |
| 1070 s | COC(=O)c1c(-c2ccccc2)noc1NCc1ccc(OC)cc1OC |
| 1300 s | Cc1nn(-c2ccccc2)c2nc(N3CCCC(C(=O)Nc4cccc(Br)c4)C3)sc12 (stereo not given) |

| RP-LC retention time | SMILES |
| --- | --- |
| 614 s | COc1ccc(N2CCN(Cc3nc4ccccc4[nH]c3=O)CC2)cc1 |
| 877 s | CCOc1ccc(Nc2c(-c3ccccc3)nc3cnccn23)cc1 |
| 1330 s | Cc1ccc(-c2coc(-c3ccc(NC(=O)Cc4cccs4)cc3)n2)c(C)c1 |
| 983 s | O=C(Cc1ccc(Br)cc1)Nc1cc(-c2ccsc2)no1 |
| 1060 s | COc1cc(OC)cc(-c2nnc(Cc3nc(-c4ccccc4C)no3)o2)c1 |
| 924 s | Cc1ccc(-c2cn3ccn(-c4ccc(F)c(F)c4)c(=O)c3n2)c(C)c1 |
| 778 s | COc1ccc(-c2nc3ccc(C)cn3c2Nc2ccc(C)cc2)cc1 |
| 822 s | CC(=O)N1CCc2cc(S(=O)(=O)CCC(=O)N3CCC(CCOc4ccccc4)C3)ccc21 (stereo not given) |
| 642 s | O=C(NCCn1ncccc1=O)Nc1ccccc1C(F)(F)F |
| 567 s | CN(C)CCNC(=O)c1ccc2c(c1)nnn2Cc1ccccc1 |
| 1020 s | Cc1ccc(-c2nnc(-c3nn(C)c4c3CN(S(=O)(=O)Cc3ccccc3Cl)CC4)o2)cc1 |
| 1070 s | CC1CCCCN1C(=O)CSc1nc(-c2ccccc2)no1 (stereo not given) |
| 588 s | CCSc1nnc(NC(=O)c2csc(Nc3cccnc3)n2)s1 |
| 683 s | CN(C)c1ccc(C(CNC(=O)COc2ccc(Cl)cc2)N(C)C)cc1 (stereo not given) |
| 674 s | Cc1ccc(NC(=O)N2CCN(c3ccc(=O)n(-c4ccccc4)n3)CC2)cc1 |
| 1030 s | CCc1ccc(S(=O)(=O)N2CC(c3nc(-c4ccccc4)nn3C)C2)cc1 |
| 894 s | COc1ccc(-c2c(C)noc2NC(C)=O)cc1S(=O)(=O)NCCc1ccc(Cl)cc1 |
| 919 s | Cc1ccc(NC(=O)c2cnc3c(c2)c(=O)n(C)c(=O)n3-c2ccccc2)cc1 |
| 887 s | CC(C)NC(=O)c1ccc(OCC2CCCN(C(=O)c3ccc(F)cc3Cl)C2)cc1 (stereo not given) |
